The target of one data set is S. aureus TrxR (Staphylococcus aureus, UniProt P66011). Put plainly: TrxR (TrxB) enzymatic assay, DTNB to TNB conversion. As to conditions: for TrxR enzymatic inhibitory activity (in words): DTNB to TNB conversion.
The test system of a further data set is Enterobacter (EAE 2625). Description: Broth microdilution MIC, Enterobacter. It is filed as cell-based, Enterobacter spp. As to conditions: Enterobacter (EAE 2625); read-out: MIC. As for the experimental part:
(§1) In vitro antibiotic susceptibilities were determined using the broth microdilution assay established by the Clinical and Laboratory Standards Institute ([Clinical and Laboratory Standards Institute, 2012]). Broth microdilution assays were carried out with 2 biological replicates, each in triplicate, Mueller–Hinton broth (MHB; BD Biosciences, Franklin Lakes, NJ, USA) with a total assay volume of 100 μL in 96-well plates (BD Biosciences, Franklin Lakes, NJ, USA). Two-fold serial dilutions of compounds were prepared at a range of 0.01– 64 μg/mL in 50 μL of MHB. The initial bacterial inoculum was adjusted to OD600 0.06, 50 μL was, added to the test compounds, and then incubated at 35°C for 18 h. Post incubation, OD600 was measured using a Vmax microplate reader (Molecular Devices, San Jose, CA), and the lowest concentration of test compound that suppressed bacterial growth was reported as the MIC. Broth culture from the MIC assay (10 μL) was plated on Mueller–Hinton agar (BD Biosciences, Franklin Lakes, NJ, USA), and colony-forming units (CFUs) were enumerated after overnight incubation at 37°C.

A further data set concerns K. pneumoniae ATCC 77326. Put plainly: Broth microdilution MIC, K. pneumoniae. The class given is cell-based, Klebsiella pneumonia. As to conditions: Klebsiella pneumoniae, ATCC77326; K. pneumoniae ATCC 77326; read-out: MIC. As for the experimental part: as §1
A general note: In broth dilution the organism is exposed to a series of concentrations in liquid medium.

Data set [1] deals with S. aureus MW2. Put plainly: Broth microdilution MIC, S. aureus MW2. As to conditions: for MIC: S. aureus MW2 (MRSA), broth microdilution, 18 h. It is filed as cell-based, Staphylococcus aureus. The protocol:
as §1

In a further data set the test system is E. faecium ATCC E007. Put plainly: Broth microdilution MIC, E. faecium. It is filed as cell-based, Enterococcus faecium. As to conditions: Enterococcus faecium, ATCCE007; E. faecium ATCC E007; read-out: MIC. As for the experimental part: as §1
For the next data set, the system named is A. baumannii 17978. Description: Broth microdilution MIC, A. baumannii. The class given is cell-based, Acinetobacter baumannii. The note with it: Acinetobacter baumannii; A. baumannii 17978; read-out: MIC. As for the experimental part: as §1
For the next data set, the system named is P. aeruginosa PA14. Put plainly: Broth microdilution MIC, P. aeruginosa. It is filed as cell-based, Pseudomonas aeruginosa. As to conditions: Pseudomonas aeruginosa; P. aeruginosa PA14; read-out: MIC. As for the experimental part:
as §1

Data set [2] concerns clinical isolates of S. aureus. Description: MIC against clinical isolates of S. aureus. The class given is cell-based. The note with it: Staphylococcus aureus, read-out: MIC. The protocol: Broth microdilution assays were carried out with 2 biological replicates, each in triplicate, Mueller–Hinton broth (MHB; BD Biosciences, Franklin Lakes, NJ, USA) with a total assay volume of 100 μL in 96-well plates (BD Biosciences, Franklin Lakes, NJ, USA). […] The initial bacterial inoculum was adjusted to OD600 0.06, 50 μL was, added to the test compounds, and then incubated at 35°C for 18 h. Post incubation, OD600 was measured using a Vmax microplate reader (Molecular Devices, San Jose, CA), and the lowest concentration of test compound that suppressed bacterial growth was reported as the MIC.
Isolates were tested as 2 biological replicates.

Data set [3] can be described thus: Compound solubility in PBS. It is filed as physicochemical. The note with it: aqueous buffer, kinetic from dmso stock; PBS, 2 Hour; highest concentration with no detectable precipitate; read-out: Solubility Limit. The protocol:
Compound solubility in PBS. Compound solubility was measured in PBS. Briefly, serial dilutions of test compounds were prepared in DMSO at 100x the final concentration. Test compound solutions were diluted 100-fold into PBS in a 96-well plate and mixed. After 2 h, the presence of precipitate was detected by measuring absorbance at 540 nm.

Data set [4] concerns intracellular free thiols of S. aureus MW2. Put plainly: Thiol depletion assay. The class given is cell-based, Staphylococcus aureus. The note with it: treated vs untreated cell lysate. The protocol:
S. aureus MW2 was treated for 15 min with the indicated (0.125, 0.25, 0.5, or 0.75 µg/mL) concentrations of auranofin, AU1, AU5, or ampicillin. After treatment bacteria were washed twice in PBS and then resuspended in 100 mM potassium phosphate, monobasic, pH 7.4, containing 1 mM ethylenediaminetetraacetic acid to promote lysis. Cells were incubated in the lysis solution for 30 min at 60°C and then vortexed briefly. The solution was centrifuged at 13,000 g for 10 min to collect cell debris. Lysate was collected and 50 μL was transferred to a 96-well plate. Thiols were quantified using the Fluorometric Thiol assay kit following the manufacturer’s instructions (Millipore Sigma, St. Louis, MO, USA). The fluorescence intensity was measured after a 30 min incubation time at λex = 490/λem = 535 nm using a Vmax plate reader.

In data set [5] the test system is S. aureus MW2. Put plainly: Diamide assay (CFU reduction). It is filed as cell-based, Staphylococcus aureus. As to conditions: 3 h. As for the experimental part: An overnight culture of S. aureus MW2 was inoculated in tryptic soy broth (TSB) media and grown with agitation. The cells were centrifuged, washed with PBS, and diluted to an OD600 0.4 (10^8 CFU/mL) in PBS. The cells were then treated with auranofin (0.5 µg/mL), AU1 (0.5 µg/mL), AU5 (0.5 µg/mL), and diamide (5 mM and 10 mM) alone or in combinations for 3 h at 37°C. The cells were then serially diluted and plated on tryptic soy agar (TSA) media and incubated at 37°C for 24 h. Colonies that grew on plates were enumerated to determine the effect of the drug and diamide on S. aureus.

The structures appear in SMILES notation. In brackets after ≈: the same amount, converted by molar mass. Like-named read-outs stand apart in the source and are kept apart here.

Chain of S. aureus TrxR (P66011 whole entry): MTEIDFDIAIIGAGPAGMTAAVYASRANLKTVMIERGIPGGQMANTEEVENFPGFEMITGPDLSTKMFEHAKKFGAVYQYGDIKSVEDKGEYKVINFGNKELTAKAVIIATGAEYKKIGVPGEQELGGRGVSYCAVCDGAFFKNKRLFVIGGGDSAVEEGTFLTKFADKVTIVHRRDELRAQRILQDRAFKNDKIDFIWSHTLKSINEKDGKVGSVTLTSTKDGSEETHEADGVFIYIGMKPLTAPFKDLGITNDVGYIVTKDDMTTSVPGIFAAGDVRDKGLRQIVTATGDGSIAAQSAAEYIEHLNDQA
Procedure for S. aureus TrxR: TrxR specific inhibitory activity was evaluated using 40 μL of S. aureus TrxR enzyme (0.5 μg/μL) per 200 mL of the reaction mixture for 15 minutes, comparing auranofin to other sulfur-containing compounds (all tested at 10 μg/mL), including known anti-S. aureus compounds.
For the screening assay, diluted TrxR assay buffer (Cayman Chemical, Ann Arbor, MI) (100 μL) was mixed with the investigational compounds (20 μL) in a 96 well-plate format and combined with Sa-TrxB (40 μL; 0.5 μg/mL), DTNB (20 μL) and NADPH (20 μL). The reaction entailed combining NADPH and Sa-TrxB with DTNB, which was converted to TNB, producing a yellow color.

Broadly, the MIC is the smallest concentration in the dilution series that meets the test's criterion for growth inhibition. Turning to `CC(C)(C)c1ccc(S(=O)(=O)/C=C/C#N)cc1` [Bay11-7085], the “OD420 in TrxR enzymatic assay” value at S. aureus TrxR (subscreen, after a 30 min incubation period, DMSO 0.483 ± 0.121) amounted to 0.1094. The MIC in the data set on Enterobacter (EAE 2625) was more than 64 µg/mL; in the data set with K. pneumoniae ATCC 77326, more than 64 µg/mL; with S. aureus MW2 [1] (Staphylococcus aureus, read-out: MIC), 4 µg/mL (≈ 16 µM); in the data set on E. faecium ATCC E007, 32 µg/mL (≈ 128 µM); in the data set on A. baumannii 17978 it was 64 µg/mL (≈ 257 µM); in the data set with P. aeruginosa PA14 it was more than 64 µg/mL.
Compound `CC(C)(C)c1ccc(S)cc1` [C1, 4-tert-butylbenzenethiol] came in with an MIC against S. aureus MW2 [1] of more than 128 µg/mL.
As for `CC(C)(C)c1ccc(S(=O)O)cc1` [C2, 4-tert-butylbenzenesulfinic acid], the MIC in the data set with S. aureus MW2 [1] is more than 128 µg/mL.
Still for that read-out and setting: as for `CCP(=O)(CC)CC` [C3, triethylphosphine oxide], the figure is more than 128 µg/mL; as for `O=P(c1ccccc1)(c1ccccc1)c1ccccc1` [C4, Triphenylphosphine oxide], more than 128 µg/mL.
Consider `CC(C)(C)c1ccc(S(=O)(=O)/C=C/C(N)=O)cc1` [D22], for which, at S. aureus TrxR, the “TrxR enzymatic inhibitory activity (in words)” value is “demonstrated inhibitory activity but required higher concentrations than AU1, AU5, or auranofin”. Also, the “anti-S. aureus activity (in words)” value in the data set on S. aureus MW2 [1] is listed as “not effective S. aureus inhibitors”.
The like results for `COC(=O)/C=C/S(=O)(=O)c1ccc(C(C)(C)C)cc1` [D25] were, in that order, “did not inhibit” and “not effective S. aureus inhibitors”.
Take `CC(C)(C)c1ccc(S(=O)(=O)/C=C/CO)cc1` [D26]: the “TrxR enzymatic inhibitory activity (in words)” value at S. aureus TrxR was “demonstrated inhibitory activity but required higher concentrations than AU1, AU5, or auranofin”. Moreover, in the data set with S. aureus MW2 [1], the “anti-S. aureus activity (in words)” value is given as “not effective S. aureus inhibitors”.
With `Cc1onc(-c2ccccc2)c1C(=O)N[C@@H]1C(=O)N2[C@@H]1SC(C)(C)[C@@H]2C(=O)O` [Oxacillin], the MIC came out at 0.5 µg/mL (≈ 1.25 µM) in [2] (isolate BFSA12); 1 µg/mL (≈ 2.49 µM) in data set [2] (isolate BFSA13); 0.25 µg/mL (≈ 0.623 µM) in [2] (isolate BFSA15); 0.25 µg/mL (≈ 0.623 µM) in [2] (isolate BFSA16); 0.125 µg/mL (≈ 0.311 µM) in data set [2] (isolate BFSA17); 0.5 µg/mL (≈ 1.25 µM) in [2] (isolate BFSA18). The MIC in [2] (isolate BFSA19) is 0.5 µg/mL (≈ 1.25 µM); in data set [2] (isolate BFSA20), 0.5 µg/mL (≈ 1.25 µM); in data set [2] (isolate BFSA21), 0.5 µg/mL (≈ 1.25 µM); in data set [2] (isolate BFSA22), 1 µg/mL (≈ 2.49 µM); in data set [2] (isolate BFSA24) it was 0.5 µg/mL (≈ 1.25 µM); in data set [2] (isolate BFSA26), 0.25 µg/mL (≈ 0.623 µM). The MIC in data set [2] (isolate BFSA29), in data set [2] (isolate BFSA30), in data set [2] (isolate BFSA31), in [2] (isolate BFSA32), in [2] (isolate BFSA33) and in [2] (isolate BFSA34) was more than 8 µg/mL each time. Also, the MIC in data set [2] (isolate BFSA35) is more than 8 µg/mL; in data set [2] (isolate BFSA36) it was more than 8 µg/mL; in data set [2] (isolate BFSA37), 0.25 µg/mL (≈ 0.623 µM); in data set [2] (isolate BFSA38), 0.25 µg/mL (≈ 0.623 µM); in data set [2] (isolate BFSA39) it was 0.25 µg/mL (≈ 0.623 µM); in [2] (isolate BFSA148) it was more than 8 µg/mL. Also, the MIC in [2] (isolate BFSA149), in data set [2] (isolate BFSA150), in data set [2] (isolate BFSA151), in data set [2] (isolate BFSA152), in data set [2] (isolate BFSA153) and in [2] (isolate BFSA155) was more than 8 µg/mL each time.
By solubility is commonly meant how much of the substance goes into solution per volume. Consider `COC(=O)[C@H]1[C@H]2C[C@@H]3c4[nH]c5cc(OC)ccc5c4CCN3C[C@H]2C[C@@H](OC(=O)c2cc(OC)c(OC)c(OC)c2)[C@@H]1OC` [Reserpine], for which the solubility at 2 h in data set [3] was 7.81 µM (≈ 4.75 µg/mL).
On to `CC1(C)S[C@@H]2[C@H](NC(=O)[C@H](N)c3ccccc3)C(=O)N2[C@H]1C(=O)O` [ampicillin], for which, in [4], the “impact on free thiols (in words)” value is recorded as “no impact”.
Turning to `CN(C)C(=O)/N=N/C(=O)N(C)C` [diamide], the “log CFU reduction” value with S. aureus MW2 [5] (diamide alone 5 mM) is recorded as 1.5 log CFU; in the data set with S. aureus MW2 [5] (diamide alone 10 mM), “up to 2.6 log CFU”.
